In series [1] the test system is Apteronotus leptorhynchus. The experiment in a line: Neuro-behavioral assay: effect on EOD frequency. The class given is in vivo. Particulars: for Median EOD frequency change, 30-min interval before vs 15-min interval after start of anesthesia: Median / EOD frequency lower than median baseline frequency immediately after return to isolation tank (range among fish) / EOD frequency lower than median baseline frequency immediately after return to isolation tank (median): n=8 fish; for Recovery model (Eq. 3) parameter a: normalized frequency; for EOD frequency lower than median baseline frequency immediately after return to isolation tank (range among fish): 2.5% urethane or 0.02% MS-222 immersion until fin and opercular movement ceased; for EOD frequency lower than median baseline frequency immediately after return to isolation tank (median): 2.5% urethane or 0.02% MS-222 immersion; for Recovery model parameter a (ratio EOD frequency vs baseline at t=0), estimate / Recovery model parameter b, estimate / Recovery model parameter c, estimate / Recovery model parameter d, estimate: robust nonlinear regression, Equation 1, 2.5% urethane or 0.02% MS-222. The text has this:
For the assay, adult brown ghost knifefish (Apteronotus leptorhynchus; Gymnotiformes, Teleostei), with total lengths of approximately 12-15 cm, are used. The fish are imported from their natural habitat in South and Central America.
At least 1 week before using the assay for the first run, the fish is transferred from a community tank to an isolation tank (50 cm×30 cm×30 cm) equipped with aquarium thermostat heaters and air-driven corner filters. The fish is kept in aquarium water prepared by adding a mixture of inorganic salts (81 mmol/L MgSO4·7H2O; 107 mmol/L KCl; 12 mmol/L NaH2PO4·2H2O; 732 mmol/L CaSO4·2H2O) to deionized water until a water conductivity of approximately 150-300 μS/cm is reached. Water temperature, determined during the experiments every 10 min with a calibrated high-precision (accuracy+0.05° C.) digital thermometer, is kept in the range of 25.0-28.0° C. across all assays. Variation is limited to 1.0° C. in an individual assay. A 12:12 h light:dark photoperiod is maintained with a timer. The fish are fed red mosquito larvae daily, after the assay run on that day has been completed.
In each isolation tank, an opaque cylindrical plastic tube (length: 190 mm; inner diameter: 38 mm; outer diameter: 42 mm) provides shelter and is readily accepted by the fish, particularly during the light phase, when individuals of this nocturnal species spend most of the time in shelter places. A pair of stainless-steel electrodes is mounted on the inside of each tube (see section 4.1.2, ‘EOD recording,’ below).
Differential recording of the fish's EOD is done through the pair of stainless-steel electrodes built into the shelter tube (FIG. 1). […] This allows the fish's EOD to be recorded continuously without interruptions. At the same time, mesh size is chosen such that sustained water flow through the tube is ensured. A strip of stainless steel is placed in the tank to serve as a ground electrode.
The signal is AC amplified (gain: 30×; low-pass filter: none; high-pass filter: 200 Hz) and then digitized at a sampling rate of 50 kHz.
The sampled time-voltage data (ti, vi), i=1, . . . , N, are filtered in subsequent, 1-s-long windows using a bandpass filter with frequency band [0.8, 1.2]×f0, where f0 is the fundamental frequency determined from the power spectrum of the signal within the associated time window.
The filtered time series data (ti, Vi), i=1, . . . , N, are further processed to determine the EOD frequency at a higher time resolution. First, tuple j containing the indices of all instants where the filtered signal changes sign to a positive value is determined:
Then, tuple t^+ of time instances when the signal crosses the time axis upwards is calculated using interpolation:
Here M=|j| denotes the number of elements in j (the number of all crossings). Finally, time-frequency pairs (Tk, fk) are computed as
for k=1, . . . , M−m. Here m=10 is the number of averaged time periods used for EOD frequency calculation.
Since the EOD frequency of A. leptorhynchus is temperature dependent, all measured frequencies are adjusted to a reference temperature (arbitrarily chosen to be 26° C.) so that discharge frequencies at different water temperatures can be compared. This adjustment of a frequency f1 (in Hz) measured at a temperature T1 (in ° C.) to the reference temperature T2=26° C. is calculated as
where f2 is the expected frequency at T2 and Q10=1.56, as determined empirically.
The experimental design is outlined in FIG. 2. To determine the baseline EOD frequency, the fish's EOD was recorded for 30 min. Then, the fish was transferred into a glass beaker containing either 2.5% urethane (Acros Organics, New Jersey, USA) or 0.02% MS-222 (Western Chemical, Washington, USA), each dissolved in water from the fish's isolation tank. As a control, the fish was moved into an identical glass beaker containing aquarium water only. […]

The test system of series [2] is Apteronotus leptorhynchus. The experiment in a line: Neuro-behavioral assay: EOD amplitude. The series is classed as in vivo. The protocol: Differential recording of the fish's EOD was performed through a pair of stainless-steel electrodes built into the shelter tube (FIG. 1). During the experiment, the open ends of the tube were closed with a course plastic mesh netting to ensure that the fish remained close to the recording electrodes, thereby yielding high-quality recordings. This restraint is minimally invasive, as, particularly during daytime, the fish remain in shelter tubes with open ends for prolonged periods of time, often for several hours. The recorded EOD signal was amplified and digitized following a protocol established previously. To examine the effect of eugenol on EOD frequency and chirping behavior, the following experiments were conducted using 8 fish (FIG. 11): First, the baseline EOD was recorded in the fish's home tank (50 cm×30 cm×30 cm) for 30 min. Then, for the 5-min treatment session, the shelter tube with the fish was transferred to a smaller (experimental) tank (30 cm×20 cm×20 cm) containing either eugenol dissolved in aquarium water at a certain concentration (30 μL/L, 45 μL/L, or 60 μL/L; ‘test condition’) or aquarium water only (‘control condition’). The temperature in the experimental tank was similar to the temperature in the home tank (median difference: ±0.2° C.). Finally, the shelter tube with the fish was returned to the home tank, where recording continued for 180 min. Throughout the 215 min of pre-treatment, treatment, and post-treatment, the recording of the EOD was interrupted only for a few seconds during which the fish was transferred between its home tank and the experimental tank. The order of the four treatment conditions was determined using a randomized complete block design. Each test or control experiment in a given fish was conducted on a different day.

The conditions of series [3]: PubChem; cited from earlier work.
In the next series the test system is zebrafish (Danio rerio). Particulars: 60 μL/L eugenol, D. rerio; cited from earlier work.
For another series, the target named is T1, Nav 1.7 (Homo sapiens, UniProt Q15858).
T1 construct: host or cells: CHO cells (transfected)
Particulars: Nav 1.7-transfected CHO cells; cited from earlier work.

For the next series, the system named is GABAA receptors. Particulars: receptors expressed in Xenopus oocytes; cited from earlier work.
Another series deals with GABAA current. Particulars: rat trigeminal ganglia; cited from earlier work.
In series [4] the test system is epileptiform field potentials and spreading depression. Particulars: rat neocortical and hippocampal slices; cited from earlier work.

Consider three molecules from US20240207454A1, “NEURO-BEHAVIORAL ASSAY FOR PHYSIOLOGICAL EVALUATION OF WATER-SOLUBLE ANESTHETICS” (Northeastern University, priority 2022, published 2024).

Structures are written as SMILES.

T1 sequence (Q15858 whole entry): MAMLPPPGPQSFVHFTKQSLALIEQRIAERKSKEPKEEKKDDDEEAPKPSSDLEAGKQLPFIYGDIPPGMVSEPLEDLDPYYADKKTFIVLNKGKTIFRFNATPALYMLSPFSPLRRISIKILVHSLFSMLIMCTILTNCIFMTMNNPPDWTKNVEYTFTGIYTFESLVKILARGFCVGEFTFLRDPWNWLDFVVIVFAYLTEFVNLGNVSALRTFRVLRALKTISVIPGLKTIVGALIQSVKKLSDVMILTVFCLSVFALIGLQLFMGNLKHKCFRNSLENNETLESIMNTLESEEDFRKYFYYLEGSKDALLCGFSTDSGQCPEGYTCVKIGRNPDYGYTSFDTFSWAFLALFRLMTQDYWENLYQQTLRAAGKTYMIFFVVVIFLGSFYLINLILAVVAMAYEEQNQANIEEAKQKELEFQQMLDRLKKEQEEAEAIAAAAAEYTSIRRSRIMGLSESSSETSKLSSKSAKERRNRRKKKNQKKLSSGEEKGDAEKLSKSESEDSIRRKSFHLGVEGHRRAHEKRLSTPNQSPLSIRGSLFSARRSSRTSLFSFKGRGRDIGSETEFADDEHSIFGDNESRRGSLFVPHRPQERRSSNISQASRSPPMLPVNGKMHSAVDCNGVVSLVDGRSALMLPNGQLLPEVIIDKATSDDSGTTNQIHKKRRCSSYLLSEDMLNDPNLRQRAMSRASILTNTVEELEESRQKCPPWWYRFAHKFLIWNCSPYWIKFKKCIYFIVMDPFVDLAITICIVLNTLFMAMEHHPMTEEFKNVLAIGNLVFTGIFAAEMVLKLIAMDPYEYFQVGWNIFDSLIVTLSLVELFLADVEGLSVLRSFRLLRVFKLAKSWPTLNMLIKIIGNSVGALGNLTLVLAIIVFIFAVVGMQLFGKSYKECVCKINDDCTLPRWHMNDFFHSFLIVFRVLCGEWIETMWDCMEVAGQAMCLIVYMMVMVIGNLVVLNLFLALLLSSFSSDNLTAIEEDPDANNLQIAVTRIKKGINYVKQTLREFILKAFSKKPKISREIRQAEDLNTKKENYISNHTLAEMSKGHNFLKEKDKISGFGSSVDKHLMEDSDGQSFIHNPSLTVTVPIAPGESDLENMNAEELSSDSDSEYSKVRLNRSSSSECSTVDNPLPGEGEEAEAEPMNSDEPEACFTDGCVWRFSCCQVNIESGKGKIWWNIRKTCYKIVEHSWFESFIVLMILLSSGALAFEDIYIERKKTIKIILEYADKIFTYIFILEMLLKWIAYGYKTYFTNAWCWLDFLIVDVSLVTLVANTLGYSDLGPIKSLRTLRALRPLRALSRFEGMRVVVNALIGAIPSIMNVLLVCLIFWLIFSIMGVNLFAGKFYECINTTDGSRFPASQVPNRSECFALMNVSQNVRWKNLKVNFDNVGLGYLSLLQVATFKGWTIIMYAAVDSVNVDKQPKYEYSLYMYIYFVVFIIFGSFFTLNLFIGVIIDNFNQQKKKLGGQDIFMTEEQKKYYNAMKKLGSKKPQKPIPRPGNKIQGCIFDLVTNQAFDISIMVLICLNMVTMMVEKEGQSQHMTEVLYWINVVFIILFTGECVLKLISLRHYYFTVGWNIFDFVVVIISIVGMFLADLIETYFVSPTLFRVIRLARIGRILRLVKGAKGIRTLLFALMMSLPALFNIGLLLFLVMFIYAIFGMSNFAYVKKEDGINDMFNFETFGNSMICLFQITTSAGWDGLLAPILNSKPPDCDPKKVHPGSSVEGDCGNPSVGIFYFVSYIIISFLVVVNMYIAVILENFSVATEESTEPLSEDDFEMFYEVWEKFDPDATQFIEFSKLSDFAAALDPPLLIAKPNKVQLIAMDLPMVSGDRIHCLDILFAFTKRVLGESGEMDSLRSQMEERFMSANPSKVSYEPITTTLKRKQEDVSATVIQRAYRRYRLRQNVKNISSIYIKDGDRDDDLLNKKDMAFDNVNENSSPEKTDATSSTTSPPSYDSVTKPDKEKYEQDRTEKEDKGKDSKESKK

Regarding `C=CCc1ccc(O)c(OC)c1` [eugenol], the “Maximum EOD frequency drop vs median baseline frequency (median)” value in series [1] (60 μL/L eugenol, 5 min, 8 fish) turned out to be 232 Hz. In series [1] (60 μL/L eugenol, 5 min, 8 fish), the “Maximum EOD frequency drop vs median baseline frequency (range)” value is given as 184-277 Hz. In addition, the “Latency until fish started to lower the EOD frequency after transfer into the anesthetic solution” value in series [1] (eugenol 30-60 μL/L) fell in the range of 1 to 2 min. In addition, the “Recovery model (Eq. 3) parameter b” value turned out to be 1.4568 min in series [1] (eugenol 30 μL/L), 1.4064 min in series [1] (eugenol 45 μL/L) and 1.5816 min in series [1] (eugenol 60 μL/L). In addition, the results for the “Recovery model (Eq. 3) parameter c” value in series [1] (eugenol 30 μL/L), in series [1] (eugenol 45 μL/L) and in series [1] (eugenol 60 μL/L) were 1.0089, 1.0084 and 1.0131, respectively. The entries for the “Recovery model (Eq. 3) parameter d” value in series [1] (eugenol 30 μL/L), in series [1] (eugenol 45 μL/L) and in series [1] (eugenol 60 μL/L) were -3.2299e-05 min⁻¹, -3.3821e-05 min⁻¹ and -6.2321e-05 min⁻¹, respectively. In addition, the entries for the “Difference in the largest normalized EOD frequency drops: Median” value in series [1] (eugenol 30 μL/L vs. Control), in series [1] (eugenol 45 μL/L vs. 30 μL/L) and in series [1] (eugenol 60 μL/L vs. 45 μL/L) were −0.1650, −0.0715 and −0.0349, respectively. Moreover, the “Median EOD frequency change, 30-min interval before vs 15-min interval after start of anesthesia: Median” value was −48.18 Hz in series [1] (eugenol 30 μL/L, 5 min); −65.54 Hz in series [1] (eugenol 45 μL/L, 5 min); −88.65 Hz in series [1] (eugenol 60 μL/L, 5 min). Further, the “Recovery model (Eq. 3) parameter a” value in series [1] (eugenol 30 μL/L) is 0.7465 1; in series [1] (eugenol 45 μL/L), 0.6344 1; in series [1] (eugenol 60 μL/L), 0.5649 1. Further, the “Fish in which the EOD amplitude collapsed to markedly lower levels” value in series [2] (60 μL/L eugenol, 5 min) is 4 out of 8. For the same molecule, in series [2] (eugenol, FIG. 19 recording), the “Time after end of exposure at which EOD amplitude reached baseline levels” value is “approximately 6 min”. Also, in series [2] (eugenol, FIG. 19 recording), the “Time after onset of anesthesia at which the fish's movements ceased (jittering of EOD amplitude minimal)” value is reported as “Approximately 1.5 min”. The “octanol-water partition coefficient log kow” value in series [3] is on record as 2.49. For the same molecule, the “Time to a similar stage of anesthesia” value in the series with zebrafish (Danio rerio) is no more than 1.5 min. The “Binding to voltage-gated sodium channels” value at Nav 1.7 was “preferentially binds to such channels in the inactivated state”. Further, the “Effect on GABAA-receptor response” value with GABAA receptors is reported as “potentiate GABAA-receptor response”. Besides, the “Effect on GABA-induced current” value in the series on GABAA current is recorded as “inhibits GABAA current in a reversible, dose-dependent manner”. Besides, the “Effect on epileptiform field potentials and spreading depression” value in series [4] was “reversible and dose-dependent suppression”.

As for `CCOC(N)=O` [urethane], in series [1], the “EOD frequency lower than median baseline frequency immediately after return to isolation tank (range among fish)” value is 104-142 Hz and the “EOD frequency lower than median baseline frequency immediately after return to isolation tank (median)” value stood at 133 Hz. In series [1] (2.5% urethane, first phase lasting roughly 30 s), the “EOD frequency drop during first phase of anesthesia” value is “approximately 100 Hz”. Moreover, in series [1] (8 fish), the “Recovery model parameter a (ratio EOD frequency vs baseline at t=0), estimate” value was 0.8428 1; the “Recovery model parameter b, estimate” value is given as 21.333 min; the “Recovery model parameter c, estimate” value was 1.0228; the “Recovery model parameter d, estimate” value is -2.8717e-05 min⁻¹. Besides, the “octanol-water partition coefficient log kow” value in series [3] is reported as −0.15.

Regarding `CCOC(=O)c1cccc(N)c1` [MS-222, 3-aminobenzoic acid ethyl ester methanesulfonate], in series [1], the “EOD frequency lower than median baseline frequency immediately after return to isolation tank (range among fish)” value is listed as 129-279 Hz and the “EOD frequency lower than median baseline frequency immediately after return to isolation tank (median)” value was determined as 168 Hz. In series [1] (8 fish), the “Recovery model parameter a (ratio EOD frequency vs baseline at t=0), estimate” value was 0.3584 1; the “Recovery model parameter b, estimate” value was 0.52 min; the “Recovery model parameter c, estimate” value was 1.0024; the “Recovery model parameter d, estimate” value is -9.0311e-06 min⁻¹.
